The inhibition is the change of the read-out against control, counted positive when it falls. One may read the IC50 as the concentration that gives 50% inhibition.

The structures appear in SMILES notation.

For experiment [1], the target named is T1, ACAT (Rattus norvegicus, UniProt Q7TQM4).
T1 construct: Rat liver microsomes are used as the source of ACAT; from tissue; host or cells: rat liver microsomes
T1 sequence (Q7TQM4 1-524): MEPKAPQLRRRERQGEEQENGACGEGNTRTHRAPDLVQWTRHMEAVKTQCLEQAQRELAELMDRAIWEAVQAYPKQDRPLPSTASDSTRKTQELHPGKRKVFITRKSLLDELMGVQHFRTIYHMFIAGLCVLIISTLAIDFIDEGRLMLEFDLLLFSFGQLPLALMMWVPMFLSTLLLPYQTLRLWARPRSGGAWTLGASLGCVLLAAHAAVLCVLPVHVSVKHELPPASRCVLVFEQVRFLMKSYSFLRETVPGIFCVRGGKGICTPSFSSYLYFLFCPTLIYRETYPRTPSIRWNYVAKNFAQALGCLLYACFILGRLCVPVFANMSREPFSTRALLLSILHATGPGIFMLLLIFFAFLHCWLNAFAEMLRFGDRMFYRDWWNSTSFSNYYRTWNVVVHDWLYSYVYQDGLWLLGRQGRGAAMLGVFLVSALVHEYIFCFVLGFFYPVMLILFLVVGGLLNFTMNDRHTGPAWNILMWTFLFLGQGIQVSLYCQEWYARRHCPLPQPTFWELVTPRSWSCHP
The experiment is described as follows: ACAT assay (in vitro). The experiment is classed as biochemical. The conditions noted are these: rat liver microsomes; for inhibition at 25 µM / inhibition at 10 µM: read-out: ACAT Inhibition Screen % Inhibition; for IC50: pH 7.4, 37° C., 10 μM acyl CoA, read-out: ACAT Inhibition Screen IC50. How it is done: The in vitro activity of compounds of formula I or Ia can be determined by the following procedure.
This assay measures the activity of ACAT by measuring the ACAT-mediated transfer of tritiated oleic acid from acyl-CoA to cholesterol to give labelled cholesterol oleate. Rat liver microsomes are used as the source of ACAT. Assays are performed in round bottom microtiterplates using a total incubation volume of 50μL. Each incubation well receives 10 μL assay buffer (0.5M KHPO4, 10 μM dithiothreitol, pH 7.4), 7.5 μL of 40 mg/mL BSA (Bovine Serum Albumin) and 12.5 μg of microsomal protein. The test compound (in sufficient amount to bring the final concentration to from 0.1 to 25 μM), reference compound, or vehicle control is added and the final volume brought to 47 μL. The microtiterplate is then floated on the surface of a 37° C. water bath for fifteen minutes. Incubations are started by the addition of 3 μL ^3 H-acyl CoA (1 μCi/well, final concentration of 10 μM acyl CoA). The plate is then returned to the water bath for 15 minutes. The incubations are then terminated by application of 15 μL from each incubation to individual lanes on a thin layer plate (Silica Gel GF 20×20 cm). Standards are applied to several lanes so that the cholesterol ester band can be identified. After drying, the plates are eluted with 90:10:1 petroleum ether:diethyl ether:acetic acid. The standards are visualized via iodine vapor, and the regions corresponding to cholesterol ester are scraped into 7 mL scintillation vials. 4 mL of scintillant are added to each vial, and the radioactivity quantified. Background count is determined by the boiled controls. Full activity is determined by activity in the presence of vehicle. The percent inhibition is calculated by subtracting the background from both control and test samples, and the test value is calculated as a percentage of the control. For IC50 determinations, the inhibition is plotted against drug doses on a log scale and the concentration at which 50% inhibiting is obtained is determined.
In general terms: Microsomes from liver hold many membrane-bound enzymes, among them those of drug oxidation.

Experiment [2] addresses T1, ACAT. Briefly: ACAT assay (in vitro). Format: biochemical. To be noted: rat liver microsomes, read-out: ACAT Inhibition Screen % Inhibition.

Turning to `CCCCCCCC/C=C\CCCCCCCC(=O)N1Cc2cc(OC)c(OC)cc2C(c2ccccc2)C1` (centres unmarked) [R3=H, R4=H, R5=C6H5, R2a=CH3O, R2b=CH3O, N-(6,7-dimethoxy-4-phenyl-1,2,3,4-tetrahydroisoquinoline)-9-Z-octadecenamid], on ACAT [1], the inhibition at 25 µM came to 83% and the half-inhibitory concentration (IC50) is 2.4 µM.

In the case of `CCCCCCCC/C=C\CCCCCCCC(=O)N1CCc2cc(OC)c(OC)cc2C1c1ccccc1` (centres unmarked) [N-(6,7-dimethoxy-1-phenyl-1,2,3,4-tetrahydroisoquinoline)-9-Z-octadecenamid], the inhibition at 10 µM at ACAT [1] is 66%.

As to `CCCCCCCC/C=C\CCCCCCCC(=O)N1Cc2cc(OC)c(OC)cc2CC1c1ccc(OC)c(OC)c1` (centres unmarked) [N-[6,7-dimethoxy-3-(3,4-dimethoxyphenyl)-1,2,3,4-tetrahydroisoquinoline]-9-Z-octadecenamide], the inhibition at 25 µM at ACAT [1] is 67%.

For `CCCCCCCC/C=C\CCCCCCCC(=O)N1CCc2cc(C)c(OC)cc2C1CCc1ccc(Cl)cc1` (centres unmarked), the inhibition at 25 µM at ACAT [1] was found to be 4%.

For the compound `CCCCCCCC/C=C\CCCCCCCC(=O)N1CCc2ccccc2C1` [R3=H, R4=H, R5=H, R2a=H, R2b=H], the inhibition at 100 µM on ACAT [2] is 83%. Moreover, the IC50 at ACAT [1] was 12 µM.

Turning to `CCCCCCCC/C=C/CCCCCCCC(=O)N1CCc2cc(OC)c(OC)cc2C1c1ccccc1` (centres unmarked), at ACAT [1], the inhibition at 10 µM is 87% and the IC50 worked out at 8 µM.

Turning to `CCCCCCCC/C=C\CCCCCCCC(=O)N1CCc2ccccc2C1c1cc(Cl)ccc1NC` (centres unmarked) [N-[1-(2-methylamino-5-chlorophenyl)-1,2,3,4-tetrahydroisoquinoline]-9-Z-octadecenamide], the inhibition at 10 µM at ACAT [1] was found to be 10%.

Regarding `CCCCCCCC/C=C\CCCCCCCC(=O)N1CCc2cc(OC)c(OC)cc2C1` [R3=H, R4=H, R5=H, R2a=CH3O, R2b=CH3O], on ACAT [1], the inhibition at 25 µM stood at 100% and the IC50 was 0.74 µM.

On to `CCCCCCCC/C=C\CCCCCCCC(=O)N1CCc2ccccc2C1Cc1ccccc1` (centres unmarked) [R3=C6H5CH2, R4=H, R5=H, R2a=H, R2b=H], for which the inhibition at 25 µM at ACAT [1] was 81%.

As to `CCCCCCCC/C=C\CCCCCCCC(=O)N1CCc2cc(OC)c(OC)cc2C1Cc1ccc(OC)c(OC)c1` (centres unmarked), the inhibition at 25 µM at ACAT [1] was found to be 91%.

`CCCCCCCC/C=C\CCCCCCCC(=O)N1CCc2cc(OC)c(OC)cc2C1Cc1ccccc1` (centres unmarked): the inhibition at 25 µM at ACAT [1] is 63%.

As to `CCCCCCCC/C=C\CCCCCCCC(=O)N1Cc2cc(OC)c(OC)cc2CC1c1ccccc1` (centres unmarked) [R3=H, R4=C6H5, R5=H, R2a=CH3O, R2b=CH3O, N-(6,7-dimethoxy-3-phenyl1,2,3,4-tetrahydroisoquinoline)-9-Z-octadecenamide], the inhibition at 25 µM at ACAT [1] came out at 86%.

As for `CCCCCCCC/C=C\CCCCCCCC(=O)N1CCc2cc(O)c(O)cc2C1Cc1ccccc1` (centres unmarked) [R3=C6H5CH2, R4=H, R5=H, R2a=OH, R2b=OH, N-(1-benzyl-6,7-dihydroxy-1,2,3,4-tetrahydroisoquinoline)-9-Z-octadecenamide], on ACAT [1], the inhibition at 25 µM was determined as 73%.

Source of the values: patent US5238935A, “N-acyl-tetrahydroisoquinolines as inhibitors of acyl-coenzyme A: cholesterol acyl transferase” (Schering Corporation, priority 1992, dated 1993).
